How the values were obtained:
DGGCs [1] = assay: GCaMP6f brain slice Ca2+ imaging of DGGCs after sham or CCI-TBI; type: cell-based, mice
From the text: Neuromodulation of TRPC generates robust Ca2+ influx and facilitates neuronal hyperexcitability. […] To assess the post-injury effect of TRPC channel upregulation on neurons, we used Ca2+ imaging in brain slice to measure excitability as a product of intracellular Ca2+ gating by TRPC1/4/5 channels (FIG. 4). […] Transgenic mice with the GCaMP6f transgene were used to detect changes in cellular Ca2+-activated fluorescence. We hypothesized that DGGC activity increases due to muscarinic stimulation with ACh or direct activation of TRPC4-containing channels with EA. Sensitivity was tested by bath perfusion of ACh or EA to the slice for 5 minutes during Ca2+ imaging to quantify peak amplitude of GCaMP6f fluorescence per cell, duration of Ca2+ influx, and the field-frequency of events (FIG. 4).
Brain slice Ca2+ imaging. Transverse slices (300 μm) of hippocampus were cut with a vibratome (Thermo Scientific Microm HM650V) from Cre-CamK2+/GCamp6f+/− mice. […] Hippocampal slices were maintained in oxygenated ACSF at 30° C. for 60 min, and experiments performed at 28° C. […] Neurons were visually identified with a Nikon FN-1 microscope equipped with a 40× water-immersion objective and infrared differential interference contrast. GCaMP6f fluorescence was obtained using a SOLA Light Engine Illumination source (Lumecor) with an output of 3.5W through a 3 mm diameter liquid light guide through a Nikon ET-GFP filter. Nikon Elements software was used for image acquisition through a QIClick CCD camera (Qlmaging) with a Uniblitz Model VMM-D 1 shutter driver. Baseline time series of the DG granule layer were acquired in the presence of bath solution perfusion for 2 min. […] Images were acquired in time series with an exposure time of 200 ms at 2-10 fps at 12-bit rate and no binning. Time-series image stacks were processed with ImageJ. Images were background subtracted using the mean of the 5% lowest pixel values. Ca2+ signal events were quantified for each cell as change in fluorescence divided by the baseline fluorescence (ΔF/FO) after background subtraction. ROI signals were detrended before quantification to account for drift due to gradual photobleaching of the background.

seizure susceptibility = assay: PTZ kindling after sham or CCI-TBI; settings: M084 10 mg/kg s.c. 1 hour before each PTZ 35 mg/kg, from 7 days after surgery
Experimental: The fact that only a portion of TBI cases become susceptible to epileptic seizures is a yet unanswered phenomenon in both preclinical and clinical studies. Therefore, we investigated seizure susceptibility within the CCI-TBI model to gain a greater understanding as to the etiology of hyperexcitability spread occurring post-injury. […] In our seizure susceptibility paradigm, 1 or 7 days after experimental procedure, mice were challenged with a subconvulsant dose of PTZ (35 mg/kg s.c.) once-daily to elicit kindling epileptogenesis (FIG. 6A). The progression of motor seizure behavior was observed and timed by direct observation linked to EEG activity (FIG. 6B).
We wished to understand if the TRPC channel upregulation after TBI could be targeted to impede epileptogenic activity. […] Seizure susceptibility was standardized according to the latency to forelimb clonus lasting greater than 5 sec.
Controlled cortical impact traumatic brain injury. The controlled cortical impact (CCI) traumatic brain injury (TBI) model was applied, with a closed skull impact approach. The CCI model causes TBI, but the skull remains intact with minimal hematoma. This type of brain injury model most closely simulates the TBI experienced during blunt-head injuries from vehicular accidents or falls. Mice were anesthetized with isoflurane (3% induction, 1% maintenance) in 100% O2. Body temperature of 37° C. was maintained using a temperature-controlled heated surgical table. The skull was fixed with ear-bars into a stereotaxic frame. A small midline incision was made on the scalp using aseptic surgical techniques. Impact was delivered by cylindrical probe of 5 mm diameter with an Impact One neurotrauma impactor (Leica Biosystems). A calibrated impact was delivered at 4.5 m/sec to a depth of 1 mm and 0.5 sec dwell time to the right parietal cortex (−1.8 mm ML, +2.0 mm AP, −1.0 mm DV). […] The scalp was then sutured closed and mice were placed in a warming recirculation unit and monitored until fully awake and moving freely. […] For consistency, the left hemisphere of both sham and TBI mice is designated as “contralateral” brain, and the right hemisphere is referred to as “ipsilateral”, despite no impact injury occurring in sham mice.
In vivo electroencephalograms. To determine seizure frequency and record brain susceptibility to seizures, mice were implanted with electroencephalogram (EEG) electrodes 24 hr after sham or TBI. A three-channel tethered EEG system was used. The electrode pedestal (P1 Technologies) was secured to the skull with three anchored dental screws and connected to a preamplifier with gain of 25. The three leads were inserted over the left frontal cortex, left parietal cortex, and depth electrode lead into the hippocampus. The Stellate Harmonie acquisition hardware and software were used to collect coincident video and EEG activity. EEGs were inspected for presence of epileptiform spikes and seizures.
Seizure susceptibility assays. Pentylenetetrazol kindling model. Seizure susceptibility was tested with the GABAA receptor antagonist pentylenetetrazol (PTZ) for progression of motor seizure activity. Mice were injected with PTZ (35 mg/kg, s.c.) once per day and scored for motor behavioral seizures.

[2] = 2015, cited from earlier work
TRPC4/5 channels = settings: description from literature; cited from earlier work
DGGCs [3] = assay: Ca2+ imaging with calcium green-1 in DGGCs of hippocampal slices, whole-cell mode; type: cell-based, mice; settings: M084 and ML204 together, 10 μm
Experimental: Hippocampal Slice Preparation. […] Hippocampal slices were maintained in oxygenated ACSF at 30° C. for 60 min and experiments were performed at 25° C.
Ca2^+ Imaging. Concurrent with patch-clamp electrophysiology, neurons in slices were also imaged (Nikon FN-1, 40× water-immersion objective) via the fluorescent Ca^2+-reporter dye calcium green-1. As a hexapotassium salt, the dye (10 μm) was added to the intracellular patch pipette solution and neurons were patched under whole-cell clamp, as described above. Cells were loaded for 10 min before image acquisition. Fluorescence intensity was obtained using a SOLA Light Engine illumination source (Lumencor) with an output of 3.5 W through a 3-mm-diameter liquid light guide through a Nikon ET-GFP filter. Nikon Elements software was used for image acquisition through a QIClick CCD camera (QImaging). Images were acquired with an exposure time of 200 ms every 2 min using a single-channel, 12-bit rate and no binning. The shutter was closed between each acquisition. For each cell, the corrected total cell fluorescence was measured as the integrated density intensity—(cell area*mean background emission). Ca^2+ signals were measured as the change in fluorescence relative to the baseline fluorescence (ΔF/F0). Averages of four images were thresholded at 10%, masked using a highly averaged image of the cell, and encoded with a pseudocolor look-up table. Group cell fluorescence data were averaged in comparison with normalized intensity at each time point.

[4] = system: pilocarpine-induced seizures; assay: Pilocarpine-induced chemoconvulsant seizure model; type: in vivo, mice; settings: M084 10 mg/kg 30 min before pilocarpine 280 mg/kg, n=8
Experimental: After administration of scopolamine (1 mg/kg), control mice were pretreated with saline vehicle and then were administered pilocarpine (280 mg/kg) 30 min later.
The muscarinic agonist pilocarpine was used to induce seizures in vivo. Two-month-old mice were injected with scopolamine methylnitrate (1 mg/kg; MP Biomedicals) to block peripheral mAChRs 30 min before administration of pilocarpine hydrochloride (280 mg/kg; Sigma-Aldrich). Drugs were delivered via intraperitoneal injection in 0.9% sterile saline at a total volume equivalent to 1% of the mouse body weight. Control mice were given the same dose of scopolamine followed by vehicle saline 30 min later. […] Peak seizure activity was observed 60 min after pilocarpine delivery with occasional forelimb clonus.

CCCCNc1nc2ccccc2[nH]1 [M084, N-butyl-1H-benzimidazol-2-amine]
Ca2+ peak amplitude (DGGCs [1]; EA 1 μM + M084 10 μM, ipsilateral DGGCs from TBI mice): 1.44±0.05 ΔF/F | duration of Ca2+ influx (DGGCs [1]; M084 10 μM added to EA 1 μM): attenuated the duration of influx to baseline levels | days to clonic seizures (seizure susceptibility): 10.6 ± 0.5 days | days to demonstrate myoclonic jerks (seizure susceptibility): 7.3 ± 0.6 days | days to tonic-clonic seizure behavior (seizure susceptibility): 11.0 ± 0.6 days | brain concentration at time of PTZ challenge ([2]; 1 hour after M084 10 mg/kg s.c., inferred from Yang et al.): likely within the micromolar range | blood-brain barrier crossing ([2]; Yang et al.): crosses the blood-brain barrier | effect on TRPC4/5 channels (TRPC4/5 channels): potent inhibitor or antagonist | maximum calcium-green 1 emission on muscarinic stimulation (DGGCs [3]): 1.61±0.21 fold | mean maximum Racine seizure stage [4]: 1.1±0.5 | status epilepticus [4]: not observed in any animal

From patent publication US11878012B2, “Compositions and methods for treating traumatic brain injury” (Board of Regents, the University of Texas System, priority 2020, dated 2024)
